We go through 15 molecules from patent US20250268854A1, “2-AMINO-5,5-DIMETHYLHEXANOIC ACID DERIVATIVES AS SORTILIN MODULATORS FOR USE IN THE TREATMENT OF DISEASE OF THE CENTRAL NERVOUS SYSTEM” (c/o Vesper Bio ApS, priority 2021, published 2025).

Counter-ions that a name gives are not always drawn.

What is called IC50 is the point on the concentration scale where inhibition reaches its midpoint. The low end stands for higher potency, the high end for lower potency. By Kd is commonly meant the equilibrium constant for the complex coming apart.

Experiment [1] deals with h-Sortilin (Homo sapiens (Human), UniProt Q99523). Briefly: Neurotensin (NTS) scintillation proximity assay (SPA): displacement of [3H]-neurotensin binding. As to conditions: 150 nM 6his-Sortilin, 5 nM [3H]-Neurotensin; average of at least 2 determinations. On the procedure: The exemplified compounds of the invention were tested in a Neurotensin (NTS) scintillation proximity assay (SPA). NTS, which is a 13 amino acid neuropeptide, is a sortilin ligand. The IC50 is a measure of the amount of the compound required to inhibit the binding of NTS to sortilin by 50%. […] Compound affinity was determined by measuring the displacement of [^3H]-neurotensin binding to h-Sortilin in SPA format. […] IC50 values were calculated by nonlinear regression using the sigmoid concentration-response (variable slope) using CDD Vault software. All values reported are average of at least 2 determinations.
h-Sortilin, sequence (Q99523 78-831): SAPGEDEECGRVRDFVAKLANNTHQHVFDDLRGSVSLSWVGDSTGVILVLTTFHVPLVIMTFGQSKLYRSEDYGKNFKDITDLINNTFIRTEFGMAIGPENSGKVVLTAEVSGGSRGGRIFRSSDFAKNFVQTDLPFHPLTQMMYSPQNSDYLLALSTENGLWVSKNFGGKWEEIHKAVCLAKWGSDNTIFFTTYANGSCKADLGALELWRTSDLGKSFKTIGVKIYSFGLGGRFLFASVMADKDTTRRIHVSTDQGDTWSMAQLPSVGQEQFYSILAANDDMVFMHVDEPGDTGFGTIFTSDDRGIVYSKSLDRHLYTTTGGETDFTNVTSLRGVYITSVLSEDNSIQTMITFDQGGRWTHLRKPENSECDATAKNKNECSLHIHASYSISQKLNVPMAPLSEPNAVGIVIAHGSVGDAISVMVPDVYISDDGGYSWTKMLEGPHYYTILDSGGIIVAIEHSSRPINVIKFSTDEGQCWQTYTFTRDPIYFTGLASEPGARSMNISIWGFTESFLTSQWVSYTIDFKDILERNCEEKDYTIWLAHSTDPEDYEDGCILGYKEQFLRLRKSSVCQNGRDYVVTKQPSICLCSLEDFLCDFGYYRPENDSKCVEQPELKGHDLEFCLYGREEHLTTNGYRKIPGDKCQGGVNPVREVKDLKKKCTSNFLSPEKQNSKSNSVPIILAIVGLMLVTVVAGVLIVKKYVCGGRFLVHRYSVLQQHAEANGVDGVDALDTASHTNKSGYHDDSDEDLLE

Experiment [2] has as its target human Sortilin (Homo sapiens (Human), UniProt Q99523). Briefly: Creoptix (GCI) binding kinetics, human Sortilin. As to conditions: screened at 1 μM. On the procedure:
A protein, bound to a surface, is bathed in a solution containing potential ligands giving rise to binding kinetics to generate Kon and Koff rates, as well as a Kd.
All buffers described were filtered using a 0.2 μm filter (Product number: 10300461, Nalgene) and degassed for 15 minutes prior to use.
A flow cell temperature of 25 degrees Celsius was used throughout the experiment.
A 4PCH chip was conditioned across all flow cells using 0.2× concentration running buffer (running buffer composition: 1×HBS-N, pH 7.4, 3.4 mM EDTA, 1% DMSO) using pre-set conditioning wizard (WAVE control software) injecting: 0.1 M borate, 1 M NaCl (pH 9) followed by three start-up injections of 0.2× running buffer.
A buffer exchange was performed and 1× running buffer (1×HBS-N, pH 7.4, 3.4 mM EDTA, 1% DMSO) used during the immobilisation procedure:
An initial injection of EDC/NHS (mixed in 1:1 ratio) was performed across all 4-flow cells to activate the surface for amine coupling of ligands.
Recombinant Sortilin aliquots were thawed quickly by hand and centrifuged at 13,300 rpm for 10 minutes. A 10 μg/ml protein solution was then made in pH 5.0 acetate and injected once for 20 minutes over flow-cells 2, 3 and 4 for human, human (flow cells 2 & 3), and mouse Sortilin respectively followed by a 60 second dissociation period.
A final 7-minute passivation injection of 50 mM tris was used across all flow cells.
A flow rate of 10 μl/min was used for all conditioning and immobilisation cycles.
Compounds were screened at 1 μM using the in-built ‘intermediate binders’ settings: 100 ul/min, 45 s baseline, 25 s association, 300 s dissociation, with blanks every 5th sample and a DMSO correction (1.5% DMSO at the start and end of the experiment as well as every 20 cycles. An acquisition rate of 10 Hz was used throughout the experiment.
Compounds were screened at a final assay concentration of 1 μM and a final DMSO concentration was 1%. To achieve this, compounds were diluted in DMSO from 10 mM stocks to 100 μM (100×final assay concentration) then diluted 1:100 in running buffer which contained no DMSO to establish a final assay concentration of compound of 1 μM and a final DMSO concentration of 1% [DMSO].
Compounds and DMSO were mixed by plate shaking at 1000 rpm for 60 seconds using a Bioshake instrument.
A flow rate of 100 μl/min was used throughout the experiment.
Data was evaluated using the RAPID kinetic analysis tool in the GCI WAVE_control software with data fitted using a standard 1:1 kinetic BioModel.

human Sortilin, sequence (Q99523 78-755): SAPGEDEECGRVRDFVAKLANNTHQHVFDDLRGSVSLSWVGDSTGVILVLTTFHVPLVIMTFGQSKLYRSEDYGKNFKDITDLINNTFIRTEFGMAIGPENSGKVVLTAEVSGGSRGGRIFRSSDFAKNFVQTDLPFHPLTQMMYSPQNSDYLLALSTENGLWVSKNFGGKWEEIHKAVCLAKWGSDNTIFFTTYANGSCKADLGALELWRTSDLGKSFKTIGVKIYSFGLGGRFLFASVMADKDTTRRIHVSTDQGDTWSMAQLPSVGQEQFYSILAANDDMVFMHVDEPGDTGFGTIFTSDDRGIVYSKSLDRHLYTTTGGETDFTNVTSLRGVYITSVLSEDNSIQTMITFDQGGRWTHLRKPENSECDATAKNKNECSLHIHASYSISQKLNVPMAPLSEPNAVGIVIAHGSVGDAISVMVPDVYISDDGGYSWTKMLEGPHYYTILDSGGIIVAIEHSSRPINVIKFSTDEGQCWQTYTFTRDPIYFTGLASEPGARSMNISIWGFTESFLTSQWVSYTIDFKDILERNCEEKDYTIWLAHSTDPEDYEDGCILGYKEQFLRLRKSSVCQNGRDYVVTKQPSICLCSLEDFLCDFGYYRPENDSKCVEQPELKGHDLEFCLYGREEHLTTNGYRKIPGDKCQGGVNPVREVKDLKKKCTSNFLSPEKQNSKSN

In turn, `COc1cc(C)cc(CN[C@@H](CCC(C)(C)C)C(=O)O)c1` [Example 69, (2S)-2-{[(3-methoxy-5-methylphenyl)methyl]amino}-5,5-dimethylhexanoic acid] registered an IC50 in experiment [1] of 1390 nM. The molecule also showed a Kd in experiment [2] (Free acid) of 2760 nM.
Taken in the same sequence, the figures for `COc1cccc([C@@H](N[C@@H](CCC(C)(C)C)C(=O)O)C(F)F)c1` [Example 22, (2S)-2-{[(1R)-2,2-difluoro-1-(3-methoxyphenyl)ethyl]amino}-5,5-dimethylhexanoic acid] were 260 nM and 5960 nM.
Taken in the same sequence, the figures for `CC(C)(C)CC[C@H](NCc1ccc2c(c1)CCCO2)C(=O)O` [Example 40, (2S)-2-{[(3,4-dihydro-2H-1-benzopyran-6-yl)methyl]amino}-5,5-dimethylhexanoic acid] were 470 nM and 101 nM.
For `COc1ccc([C@@H](N[C@@H](CCC(C)(C)C)C(=O)O)C(F)(F)F)cc1OC` [Example 115, (2S)-2-{[(1R)-1-(3,4-dimethoxyphenyl)-2,2,2-trifluoroethyl]amino}-5,5-dimethylhexanoic acid] the same measures were 420 nM and 351 nM.
In turn, `Cc1ccc(CN[C@@H](CCC(C)(C)C)C(=O)O)cc1Cl` [Example 129, (2S)-2-{[(3-chloro-4-methylphenyl)methyl]amino}-5,5-dimethylhexanoic acid] gave a half-maximal inhibitory concentration (IC50) in experiment [1] of 390 nM. In addition, the Kd in experiment [2] (Ms salt) worked out at 512 nM.
For the molecule `COc1ccc([C@H](C)N[C@@H](CCC(C)(C)C)C(=O)O)cc1C` [Example 101], in experiment [1], the IC50 was found to be 280 nM. In experiment [2] (Free acid), the affinity, expressed as Kd, was 277 nM.
Taken in the same sequence, the figures for `COc1cc(CN[C@@H](CCC(C)(C)C)C(=O)O)ccc1C` [Example 33, (2S)-2-{[(3-methoxy-4-methylphenyl)methyl]amino}-5,5-dimethylhexanoic acid] were 400 nM and 242 nM.
Taken in the same sequence, the figures for `COc1cc(Cl)cc(CN[C@@H](CCC(C)(C)C)C(=O)O)c1` [Example 30, (2S)-2-{[(3-chloro-5-methoxyphenyl)methyl]amino}-5,5-dimethylhexanoic acid] were 580 nM and 450 nM.
Taken in the same sequence, the figures for `Cc1ccc(CN[C@@H](CCC(C)(C)C)C(=O)O)c2ccn(C)c12` [Example 131, (S)-2-(((1,7-dimethyl-1H-indol-4-yl)methyl)amino)-5,5-dimethylhexanoic acid, Mesylic acid] were 380 nM and 97.6 nM.
For the molecule `Cc1ccc(CN[C@@H](CCC(C)(C)C)C(=O)O)cc1C` [Example 137, (S)-2-((3,4-dimethylbenzyl)amino)-5,5-dimethylhexanoic acid, Mesylic acid], the IC50 in experiment [1] is 740 nM. This molecule also came in with a Kd in experiment [2] (Free acid) of 208 nM.
For `CC(C)(C)CC[C@H](NCc1cncnc1)C(=O)O` [Example 55, (2S)-5,5-dimethyl-2-{[(pyrimidin-5-yl)methyl]amino}hexanoic acid] the same measures were 410 nM and 1980 nM.
`COc1ccc([C@@H](N[C@@H](CCC(C)(C)C)C(=O)O)C(F)F)cc1OC` [Example 113, (2S)-2-{[(1R)-1-(3,4-dimethoxyphenyl)-2,2-difluoroethyl]amino}-5,5-dimethylhexanoic acid]: the half-inhibitory concentration (IC50) in experiment [1] was determined as 320 nM. In experiment [2] (Free acid), this molecule had a Kd of 625 nM.
For the molecule `COc1ccccc1CN[C@@H](CCC(C)(C)C)C(=O)O` [Example 9, (S)-2-((2-methoxybenzyl)amino)-5,5-dimethylhexanoic acid hydrochloride], the IC50 in experiment [1] was 630 nM. The Kd in experiment [2] (HCl salt) worked out at 8450 nM.
`COc1cc(CN[C@@H](CCC(C)(C)C)C(=O)O)ccc1F` [Example 74, (2S)-2-{[(4-fluoro-3-methoxyphenyl)methyl]amino}-5,5-dimethylhexanoic acid]: in experiment [1], the IC50 came to 950 nM. This molecule also showed a Kd in experiment [2] (Free acid) of 3390 nM.
Taken in the same sequence, the figures for `COc1ccc([C@H](N[C@@H](CCC(C)(C)C)C(=O)O)C(F)F)cc1OC` [Example 112, (2S)-2-{[(1S)-1-(3,4-dimethoxyphenyl)-2,2-difluoroethyl]amino}-5,5-dimethylhexanoic acid] were 280 nM and 183 nM.
